Like-named read-outs stand apart in the source and are kept apart here. Ends that are not written are not given here.
Legend:
Spiroplasma citri = conditions: cited from earlier work; for MIC: spiroplasma MIC from literature; for MIC concentration: S. citri, ref Béven et al. (1997)
Description: Table 7 Aggregation values of AMPs, predicted AMPs, and predicted NOAMPs. | column: MIC; Lab assay || Figure 6 Charge density analysis of predicted antimicrobial peptides (AMPs) tested in minimum inhibitory concentration (MIC) assays. […] The secondary structure of each AMP is indicated at the bottom of the respective graph. […] Intriguingly, the LK peptides had higher aggregation propensities (in the high 40s and 50s), while the peptides in the 1997 study had slightly positive (5.7, 1.3) and negative (−1.3) aggregation scores when input into AGGRESCAN. The positive control, Mel ...

[1] = system: Spiroplasma citri strain R8A2; conditions: for activity against Spiroplasma citri in MIC assay (Positive/Negative, figure heading): Figures 5 and 6, positive = high activity, negative = no activity in MIC assay; for MIC: S. citri R8A2, LD8A3 medium + fetal bovine serum, phenol red, OD560, 48 h, triplicate, Resistant = ineffective
[2] = ref Bevin2002 (Béven et al., 2003)
[3] = ref Bevin1997 (Béven et al., 1997)

KLLKLLLKLLLKLLK [LK15_3.6, LK peptide (leucine/lysine copolymer) from Béven et al., 2003]
MIC (Spiroplasma citri; [2]): 6.25 µM

KLLKLLLKLLLKLWK [LK15_W14_3.6, LK peptide (leucine/lysine copolymer) from Béven et al., 2003]
MIC (Spiroplasma citri; [2]): 6.25 µM

MAQSKRYKARLVAKRIHAVKKY [G221]
activity against Spiroplasma citri in MIC assay (Positive/Negative, figure heading) [1]: Negative | MIC [1]: Resistant

MARKAISKVIVGTRRKKKK [G66]
MIC [1]: Resistant

MCRRKGGLIGRAPPCRGRLAC [G9994]
MIC [1]: Resistant

MERRRLAAKLANKLVRIGWIG [I5196]
MIC [1]: Resistant

MFLLRRILKKLRTIFIQ [I3435]
MIC [1]: 50 µg/mL | SpiroC MIC (48hrs) ([1]; Set1, tested at 50, 25, 12.5 μg/mL, OD560, triplicate): 50 µg/mL

MGFLLKTLSHIRRVIRLII [G389]
MIC (48hrs) Resistant (R) [1]: 50 µg/mL

MGLGLHLLLAAALQGAKKKRKV [P2, synthetic peptide from Béven et al., 1997]
MIC concentration (Spiroplasma citri): 100 µM | MIC (Spiroplasma citri; [3]): 100 µM

MGLGLHLLVLAAALQGAKKKRKV [P3, synthetic peptide from Béven et al., 1997]
MIC concentration (Spiroplasma citri): 100 µM | MIC (Spiroplasma citri; [3]): 100 µM

MGLGLHLLVLAAALQGAWSQPKKKRKV [P1, synthetic peptide from Béven et al., 1997]
MIC concentration (Spiroplasma citri): 100 µM | MIC (Spiroplasma citri; [3]): 100 µM

MIDNKIGLVVKWLRSK [I3775]
MIC [1]: Resistant

MILKRVFRMKNKKASV [G10159]
MIC [1]: Resistant

MILRLPHLINCTTTGLISKITSYLG [I4992]
activity against Spiroplasma citri in MIC assay (Positive/Negative, figure heading) [1]: Negative | MIC [1]: Resistant

MILSVLKIFGVFRKRSRGN [I3440]
SpiroC MIC (48hrs) [1]: 25 µg/mL

MITGRQKALKFIKKKVGGIQ [G196]
MIC [1]: Resistant

MIVRIAIRRFLKGKRQIVKI [G33]
MIC (48hrs) Resistant (R) [1]: 25 µg/mL

MKSIKIKIKRLNSKNKKILILIFI [I970]
SpiroC MIC (48hrs) [1]: 25 µg/mL

MLIMRKIKKKKRKNRHI [G54]
MIC [1]: Resistant

MLKCHLVGFVRRLIN [I2572]
SpiroC MIC (48hrs) [1]: 25 µg/mL

MLLQRLIFKPIRIIWHT [I3441]
SpiroC MIC (48hrs) [1]: 25 µg/mL

MLNLKLIRLLRHRFAI [G15]
MIC (48hrs) Resistant (R) [1]: 50 µg/mL

MMKKVIKLQKMIALGKIVKRFSLY [I4455]
SpiroC MIC (48hrs) [1]: 12.5 µg/mL

MSRKLRKGKRQLKSPRFGKIVI [I2769]
MIC [1]: Resistant

MVSHLFCFKFIRNLRFKKIR [G19]
MIC (48hrs) Resistant (R) [1]: 50 µg/mL

Mellitin: positive control peptide in Béven et al., 1997
MIC (Spiroplasma citri; [3]): 0.39 to .78 µM
